Measured values as given in patent publication US11478451B1, “Macrocyclic chlorine substituted indole derivatives” (Bayer Aktiengesellschaft, priority 2017, dated 2022).
Where “and” joins values, the source holds several entries; their conditions need not be identical. Equal values may be shown once. Where a name gives a salt, the structure may show the parent alone. Read-outs that look alike come from different tables or passages of the source.

Columns and labels:
MCL-1 [1] = molecular target: T1, MCL-1 (Homo sapiens (Human), UniProt Q07820, K194A/K197A/R201A); test: Protein-protein interaction assay MCL-1/Noxa BH3 peptide (MCL-1 assay), TR-FRET; format: binding; conditions: IC50, median; MCL-1/Noxa BH3 TR-FRET
T1 sequence (Q07820 whole entry K194A/K197A/R201A, looked up, the tested form may be a part): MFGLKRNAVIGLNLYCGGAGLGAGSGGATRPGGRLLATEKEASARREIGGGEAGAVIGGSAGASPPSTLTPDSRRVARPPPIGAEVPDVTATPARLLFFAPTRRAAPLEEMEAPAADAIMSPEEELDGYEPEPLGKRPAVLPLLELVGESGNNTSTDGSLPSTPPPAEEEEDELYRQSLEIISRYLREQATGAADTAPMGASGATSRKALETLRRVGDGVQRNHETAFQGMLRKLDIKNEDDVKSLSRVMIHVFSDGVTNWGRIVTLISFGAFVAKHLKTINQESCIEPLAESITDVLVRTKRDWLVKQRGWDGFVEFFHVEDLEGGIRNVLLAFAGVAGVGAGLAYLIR
Description: The dose-dependent inhibition by the compounds described in this invention of the interaction between MCL-1 and the BH3 domain of Noxa (both human) was determined using a steady state binding competition assay with time-resolved fluorescence energy transfer (TR-FRET) readout. […] The MBP-MCL-1 was purchased from Beryllium (Bedford, Mass., USA). The expression and purification of this protein construct has been described elsewhere (DOI:10.1371/journal.pone.0125010). The Noxa BH3-derived peptide can be obtained from e.g. Biosyntan (Berlin, Germany), 50812.1.
(§1) For that, 100-fold concentrated DMSO solutions were prepared by serial dilutions (1:3.4) of a 2 mM stock solution in a clear, 384-well microtiter plate (Greiner Bio-One, Frickenhausen, Germany). From there, 50 nl were transferred in a dark test plate (Greiner Bio-One, Frickenhausen, Germany). […] This was followed by a 10-minute incubation step at 22° C. for pre-equilibration of the putative complex between MBP-MCL-1 and the compounds.
(§2) The mixture was incubated in the dark for one hour at 22° C. and then overnight at 4° C.
(§3) The resulting data (ratio) were normalized, taking 0% inhibition as the mean value of control measurements (usually 32 data points) where all reagents were included. In this case 50 nl DMSO were used instead of compounds. […] IC50 values were determined by regression analysis based on a 4 parameter equation (minimum, maximum, IC50, Hill; Y=Max+(Min−Max)/(1+(X/IC50)^Hill) using the Screener Software (Genedata).

BCL-XL = BCL-XL (Homo sapiens (Human), UniProt Q07817); test: Protein-protein interaction assay BCL-XL/Bad BH3 peptide (BCL-XL assay), TR-FRET; format: binding; conditions: IC50, median
BCL-XL, sequence (Q07817 1-212): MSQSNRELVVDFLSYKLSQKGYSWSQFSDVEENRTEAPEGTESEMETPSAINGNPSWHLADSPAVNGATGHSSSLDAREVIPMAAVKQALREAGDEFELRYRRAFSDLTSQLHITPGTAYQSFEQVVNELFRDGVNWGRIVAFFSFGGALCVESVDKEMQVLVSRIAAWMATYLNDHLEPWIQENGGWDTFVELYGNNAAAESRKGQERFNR
Description: The dose-dependent inhibition by the compounds described in this invention of the interaction between BCL-XL and the BH3 domain of Bad (both human) was determined using a steady state binding competition assay with time-resolved fluorescence energy transfer (TR-FRET) readout.
as §1, with “His-BCL-XL” for “MBP-MCL-1”
as §2, §3

BCL-2 = BCL-2 (Homo sapiens (Human), UniProt P10415); test: Protein-protein interaction assay BCL-2/Bad BH3 peptide (BCL-2 assay), TR-FRET; format: binding; conditions: IC50, median; BCL-2/Bad BH3 TR-FRET
BCL-2, sequence (P10415 1-211): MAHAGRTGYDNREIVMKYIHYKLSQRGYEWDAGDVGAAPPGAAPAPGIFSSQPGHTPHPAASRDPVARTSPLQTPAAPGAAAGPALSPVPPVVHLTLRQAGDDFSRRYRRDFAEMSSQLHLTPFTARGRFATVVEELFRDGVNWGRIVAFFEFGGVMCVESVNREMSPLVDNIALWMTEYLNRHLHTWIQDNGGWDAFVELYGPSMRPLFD
Description: The dose-dependent inhibition by the compounds described in this invention of the interaction between BCL-2 and the BH3 domain of Bad (both human) was determined using a steady state binding competition assay with time-resolved fluorescence energy transfer (TR-FRET) readout.
as §1, with “His-BCL-2” for “MBP-MCL-1”
as §2, §3

SUDHL5 cells [2] = test: Induction of caspase-3/7 activity (Caspase-Glo 3/7), SUDHL5; format: cell-based; conditions: EC50, median; SUDHL5, 3 h treatment
Procedure, shortened: (§4)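 Apoptosis induction was gauged via caspase-3/7 activity (Caspase-Glo 3/7) following a 3 h compound incubation at 37 °C. Background from medium-only wells was removed from each value.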

SUDHL10 cells [3] = test: Induction of caspase-3/7 activity (Caspase-Glo 3/7), SUDHL10; format: cell-based; conditions: EC50, median; SUDHL10, 3 h treatment
Procedure, shortened: as §4

SUDHL5 cells [4] = test: Antiproliferation assay (CellTiter-Glo, 72 h), SUDHL5; format: cell-based; conditions: IC50, median; SUDHL5, 72 h; read-out: Antiproli SUDHL5 [M] (median)
Procedure, shortened: (§5)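 Proliferation is determined by CellTiter-Glo luminescence following 72 h incubation with compound at 37 °C, relative to a time-zero plate measured at plating.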

MV-4-11 cells = test: Antiproliferation assay (CellTiter-Glo, 72 h), MV-4-11; format: cell-based; conditions: IC50, median; MV-4-11, 72 h; read-out: Antiproli MV-4-11 [M] median
Procedure, shortened: as §5

SUDHL5 cells [5] = system: SUDHL5 cells
SUDHL10 cells [6] = system: SUDHL10 cells
Description: (§11) Therefore, cytotoxicity assays were run in parallel in SUDHL5 and SUDHL10 cells.
(§12) The different cell lines were plated in culture medium (RPMI 1640 [GIBCO #22400-089] supplemented with 10% Fetal Bovine Serum) at a density of 3,300 cells in 30 μL/well in a sterile, solid black, flat bottom, polystyrene, TC-treated 384-well microplate (Corning #3571) using Multidrop Combi Reagent Dispenser. As a control, medium without cells was also added to the plate. Cells were incubated in a humidified incubator at 37° C. overnight. […] Rim wells were excluded. The cells were incubated for 5 h hours in a humidified incubator at 37° C. After this incubation, 30 μL of CellTiter-Glo® Luminescent Cell Viability reagent (Promega, G7573) was added to each well using the Multidrop Combi Reagent Dispenser, followed by 15 min incubation on a shaker at room temperature. Finally, luminescence was read at 0.1 ms, with a gain of 3000 using the PHERAstar FS microplate reader (BMG Labtech).

AMO-1 cells = test: Antiproliferation assay (CellTiter-Glo, 72 h), AMO-1; format: cell-based; conditions: IC50, median; AMO-1, 72 h; read-out: Antiproli AMO-1 [M] median
Procedure, shortened: as §5

HMC-1-8 cells = test: Antiproliferation assay (CellTiter-Glo, 72 h), HMC-1-8; format: cell-based; conditions: IC50, median; HMC-1-8, 72 h; read-out: Antiproli HMC-1-8 [M] median
Procedure, shortened: as §5

MCL-1 [7] = molecular target: T1, MCL-1; test: Protein-compound interaction assay (SPR assay); format: binding; conditions: equilibrium dissociation constant, geometric mean, SPR 25° C.
Text: Protein-Compound Interaction Assay (SPR Assay)
The ability of the compounds described in this invention to bind to MCL-1 may be determined using surface plasmon resonance (SPR). This allows for the quantification of binding in terms of the equilibrium dissociation constant (KD [M]), as well as association and dissociation rate constants (kon [1/M 1/s] and koff [1/s], respectively). The measurements may be performed using Biacore® T200 or Biacore® S200 instruments (GE Healthcare).
Subsequently, a solution of 1 M ethanolamine-HCl (GE Healthcare) was injected to block unreacted groups, resulting in approximately 400-2500 response units (RU) of immobilized protein. A reference surface was generated by treatment with NHS-EDC and ethanolamine-HCl.
The double-referenced sensorgrams were fit to a simple reversible Langmuir 1:1 reaction mechanism as implemented in the Biacore® T200 and S200 evaluation software (T200 evaluation software version 2.0 and S200 evaluation software version 1.0, GE Healthcare).

SUDHL10 cells [8] = test: Antiproliferation assay (CellTiter-Glo, 72 h), SUDHL10; format: cell-based; conditions: IC50, median; SUDHL10, 72 h; read-out: Antiproli SUDHL10 [M] (median)
Description: (§6) Assessment of the Anti-Proliferative Effect of Compounds in Different Cell Lines
(§7) The impact of compounds on the proliferation of different cell lines was assessed using the CellTiter-Glo® Luminescent Cell Viability reagent from Promega (G7573).
(§8) In parallel, cells were plated in a reference (day 0) plate for time zero determination.
(§9) Rim wells were excluded. The cells were incubated for 72 h hours in a humidified incubator at 37° C. The day 0 plate was measured by adding 30 μL/well of CTG solution (CellTiter-Glo® Luminescent Cell Viability reagent, Promega G7573) to time zero wells in the reference plate followed by a 10 minutes incubation and luminescence reading at 0.1 ms. using the PHERAstar FS microplate reader (BMG Labtech).
(§10) After 72 h incubation, the treated plates were measured in the same way as the day 0 plate mentioned above.

SK-BR-3 cells = test: Antiproliferation assay (CellTiter-Glo, 72 h), SK-BR-3; format: cell-based; conditions: IC50, median; SK-BR-3, 72 h; read-out: Antiproli SK-BR-3 [M] median
Description: as §6, §7, §8, §9, §10

T47D cells = test: Antiproliferation assay (CellTiter-Glo, 72 h), T47D; format: cell-based; conditions: IC50, median, T47D (head printed T4713), read-out: Antiproli T4713 [M] median
Description: as §6, §7, §8, §9, §10

A2058 cells = test: Antiproliferation assay (CellTiter-Glo, 72 h), A2058; format: cell-based; conditions: IC50, median; A2058, 72 h; read-out: Antiproli A2058 [M] median
Description: as §6, §7, §8, §9, §10

KYSE-180 cells = test: Antiproliferation assay (CellTiter-Glo, 72 h), KYSE-180; format: cell-based; conditions: IC50, median; KYSE-180, 72 h; read-out: Antiproli KYSE-180 [M] median
Description: as §6, §7, §8, §9, §10

SNU-389 cells = test: Antiproliferation assay (CellTiter-Glo, 72 h), SNU-389; format: cell-based; conditions: IC50, median; SNU-389, 72 h; read-out: Antiproli SNU-389 [M] median
Procedure, shortened: as §5

DMS-114 cells = test: Antiproliferation assay (CellTiter-Glo, 72 h), DMS-114; format: cell-based; conditions: IC50, median; DMS-114, 72 h; read-out: Antiproli DMS-114 [M] median
Procedure, shortened: as §5

SUDHL10 cells [9] = test: Induction of cytotoxicity (CellTiter-Glo, 5 h), SUDHL10; conditions: read-out: Cytotox SUDHL10 [M] (median); IC50, median; SUDHL10, 5 h
Description: as §11, §12

Structure (SMILES)	IC50 (MCL-1 [1]) [nM]	IC50 (BCL-XL) [nM]	IC50 (BCL-2)	EC50 (SUDHL5 cells [2]) [nM]	EC50 (SUDHL10 cells [3]) [nM]	IC50 (SUDHL5 cells [4]) [M]	IC50 (MV-4-11 cells) [M]	IC50 (SUDHL5 cells [5]) [nM]	IC50 (SUDHL10 cells [6]) [nM]	IC50 (AMO-1 cells) [M]	IC50 (HMC-1-8 cells) [M]	Kd (MCL-1 [7]) [nM]	IC50 (SUDHL10 cells [8]) [M]	IC50 (SK-BR-3 cells) [M]	IC50 (T47D cells) [M]	IC50 (A2058 cells) [M]	IC50 (KYSE-180 cells) [M]	IC50 (SNU-389 cells) [M]	IC50 (DMS-114 cells) [M]	IC50 (SUDHL10 cells [9]) [M]
CCc1c2c(nn1C)COC/C=C\Cn1c(C(=O)O)c(CCCOc3cccc4ccccc34)c3ccc(Cl)c-2c31 (racemic) [Example 18, (rac)-(11Z)-4-chloro-3-ethyl-2-methyl-7-[3-(naphthalen-1-yloxy)propyl]-2,10,13,15-tetrahydropyrazolo[4′,3′:9,10][1,6]oxazacycloundecino[8,7,6-hi]indole-8-carboxylic acid]	1.3	> 20000	> 20000 nM and 19000 nM and 20000 nM	1100	1300	1.4e-06	4.71e-06	1200	1300	–	–	–	–	–	–	–	–	–	–	–
Cc1c2c(nn1C)CN(C)CCCCn1c(C(=O)O)c(CCCOc3cccc4cc(F)ccc34)c3ccc(Cl)c-2c31 (single isomer, unassigned; enantiomer 1) [Example 31, (+)-4-chloro-7-{3-[(6-fluoronaphthalen-1-yl)oxy]propyl}-2,3,14-trimethyl-10,11,12,13,14,15-hexahydro-2H-pyrazolo[3′,4′:8,9][1,6]diazacycloundecino[10,11,1-hi]indole-8-carboxylic acid-N-ethylethanamine salt (Enantiomer 1)]	–	–	–	–	–	–	2.75e-07	–	–	1.7e-07	1.9e-06	0.43	–	–	–	–	–	–	–	–
Cc1c2c(nn1C)CN(C)CCCCn1c(C(=O)O)c(CCCOc3cccc4ccccc34)c3ccc(Cl)c-2c31 (single isomer, unassigned; enantiomer 1) [Example 12, (+)-4-chloro-2,3,14-trimethyl-7-[3-(naphthalen-1-yloxy)propyl]-10,11,12,13,14,15-hexahydro-2H-pyrazolo[3′,4′:8,9][1,6]diazacycloundecino[10,11,1-hi]indole-8-carboxylic acid-N-ethylethanamine salt (Enantiomer 1)]	–	–	–	–	–	1.7e-07	4.41e-07	–	–	3.3e-07	1.6e-06	–	1.4e-07	6.67e-07	7.1e-06	4.83e-06	3.79e-06	7.22e-07	1.32e-06	1.4e-07
